In patent publication US11229664B2, “Treatment of myelosuppression” (priority 2012, dated 2022):
“And” between values parts separate entries of the source, which are not always exact repeats. Equal values may be shown once.

Legend:
[1] = system: CA19-9 (carbohydrate antigen 19-9); test: Clinical trial: serum level of CA19-9; format: in vivo, human; details: for CA19-9 Serum levels: individual patients, ODSH adjunctive to gemcitabine and nab-paclitaxel
Method: Treatment consisted of a series of 28-day cycles, wherein the last day of one cycle (e.g., day 28, cycle 1) was immediately followed by the first day of the next cycle (e.g., day 1, cycle 2). In each 28-day treatment cycle, patients were dosed at days 1, 8, and 15 (three weeks of medication followed by one week of rest) as follows. First, nab-paclitaxel at 125 mg/m^2 was administered as an intravenous infusion over 30 minutes. […] Nab-paclitaxel and gemcitabine therapy was given as described in the prescribing information for Abraxane® and Gemzar®. See also, Von Hoff et al., 2011, J. Clinical Oncology 29:1-7). […]
Blood samples were also tested on day 1 of each treatment cycle for the serum level of CA19-9 (carbohydrate antigen 19-9) a marker used to assess the efficacy of the chemotherapy agents in treating pancreatic cancer. See. e.g., Maeda, 2011, Int. J. Clin. Oncol. 16(5):539-45. Reduction in the serum level of CA19-9 is indicative of chemotherapeutic efficacy against the pancreatic cancer. Tumor response and disease status was measured according to Response Evaluation Criteria in Solid Tumors (RECIST) Guidelines Version 1.1. Eur. J. Cancer, 2009, 45:228-247. A reduction of at least 30% in the sum of the diameters of target lesions (measurable lesions present at screening, up to 2 lesions per involved organ) was scored as a partial response. Patients were scored as having stable disease where the smallest sum of target lesion diameters neither decreased nor increased sufficiently to qualify as a partial response or progressive disease.

[2] = target: anti-thrombin III (Homo sapiens, UniProt P01008); details: cited from earlier work
[3] = system: BxPC-3 pancreas tumor cell line; test: BxPC-3 human pancreas tumor xenograft model: tumor weight, tumor growth inhibition (TGI); format: in vivo, female athymic nude mice; details: for Tumor weight, Mean / Tumor weight, Median / Tumor weight, individual mice: Group 2: ODSH 24 mg/kg BID, IV Days 1-11, SC Days 12-end
Method: Compounds tested in the experiment were as follows. ODSH was made by Pyramid Laboratories, Inc. (Costa Mesa, Calif.). ODSH was provided at a stock concentration of 50 mg/ml and stored at room temperature until use. ODSH was diluted in a 0.9% NaCl solution (B. Braun Medical Inc., Irvine, Calif.) to a concentration of 2.4 mg/ml to deliver 24 mg/kg, in a 10 ml/kg dose volume when administered intravenously. A concentration of 4.8 mg/ml was formulated to deliver a 24 mg/kg dose at a 5 ml/kg dose volume when administered subcutaneously. ODSH was formulated fresh prior to each dose.
Nab-paclitaxel was manufactured by Abraxis BioScience LLC (Bridgewater, N.J.) and diluted in a 0.9% NaCl solution to a concentration of 1.5 mg/ml to deliver 15 mg/kg, in a 10 ml/kg dose volume. All standard agent preparations were made fresh prior to their administration.
BxPC-3 cells were obtained and prepared as follows. The BxPC-3 pancreas tumor cell line was received from American Type Culture Collection (ATCC, Manassas, Va.). Cultures were maintained in RPMI 1640 medium (Hyclone, Logan, Utah) supplemented with 5% fetal bovine serum. The cells were housed in a 5% CO2 atmosphere. The cultures were expanded in tissue culture flasks at a 1:3 split ratio until a sufficient amount of cells were harvested.
BxPC-3 Human Pancreas Tumor Xenograft Model: Female athymic nude mice per treatment condition were inoculated subcutaneously in the right flank with 0.1 ml of a 50% RPMI 1640/50% Matrigel™ (BD Biosciences, Bedford, Mass.) mixture containing a suspension of BxPC-3 tumor cells (approximately 5×10^6 cells/mouse).
Study Director V.1.7.54k (Study Log).
Mean tumor growth inhibition (TGI) was calculated utilizing Formula A below (deaths were not included in the TGI calculations).
All statistical analyses in the xenograft study were performed with GraphPad Prism® v4 software.

[4] = ANOVA with Tukey's Multiple Comparison Test, BxPC-3 xenograft

anti-thrombin III, sequence (P01008 33-464, species assumed): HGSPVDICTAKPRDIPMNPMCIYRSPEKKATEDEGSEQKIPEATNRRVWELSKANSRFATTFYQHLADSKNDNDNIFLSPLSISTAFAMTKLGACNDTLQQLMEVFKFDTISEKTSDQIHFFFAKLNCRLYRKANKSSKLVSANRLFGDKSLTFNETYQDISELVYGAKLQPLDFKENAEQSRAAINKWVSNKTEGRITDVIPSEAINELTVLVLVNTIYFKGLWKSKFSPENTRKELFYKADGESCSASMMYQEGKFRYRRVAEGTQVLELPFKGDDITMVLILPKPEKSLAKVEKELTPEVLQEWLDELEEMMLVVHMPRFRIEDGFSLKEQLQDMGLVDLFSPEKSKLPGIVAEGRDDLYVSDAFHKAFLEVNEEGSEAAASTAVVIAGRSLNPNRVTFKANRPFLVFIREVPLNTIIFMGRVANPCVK

## substantially 2-O, 3-O desulfated heparin [ODSH]
[1]; ODSH adjunct to gemcitabine/nab-paclitaxel
  Patients in whom serum CA19-9 level decreased: 8 of 10
[1]; Cycle 1 Day 1
  CA19-9 Serum levels: 395 U/mL and 70,086 U/mL and 2,138 U/mL and 483 U/mL and 11 U/mL and 326 U/mL and 4,775 U/mL and 125 U/mL and 6,186 U/mL and 6,275 U/mL
[1]; Cycle 2 Day 1
  CA19-9 Serum levels: 490 U/mL and 22,958 U/mL and 502 U/mL and 453 U/mL and 17 U/mL and 710 U/mL and 5,934 U/mL and 71 U/mL and 4,392 U/mL and 4,018 U/mL
[1]; Cycle 3 Day 1
  CA19-9 Serum levels: 251 U/mL and 10,286 U/mL and 328 U/mL and 205 U/mL and 15 U/mL and 164 U/mL and 8,529 U/mL and 27 U/mL and 2,669 U/mL and 1,433 U/mL
[1]; Cycle 4 Day 1
  CA19-9 Serum levels: 108 U/mL and 288 U/mL and 110 U/mL and 20 U/mL and 69 U/mL and 9,926 U/mL and 15 U/mL and 2405 U/mL and 348 U/mL
[2]
  Kd, affinity for anti-thrombin III: ~4000 µg/mL
[2]; read-out: Kd, affinity for anti-thrombin III
  Kd: ~339 µM
[3]; [4]
  Difference in tumor weight compared to vehicle control, Day 26: No significant difference
  Difference in tumor weight compared to vehicle control, Day 36: significant difference
[3]; Day 1
  Tumor weight, Mean: 122.4 mg
  Tumor weight, Median: 22.9 mg
  Tumor weight, individual mice: 114 mg and 116 mg and 172 mg and 94 mg and 131 mg and 106 mg and 125 mg and 143 mg and 129 mg and 140 mg
[3]; Day 4
  Tumor weight, Mean: 134.0 mg
  Tumor weight, Median: 28.6 mg
  Tumor weight, individual mice: 98 mg and 110 mg and 141 mg and 97 mg and 181 mg and 135 mg and 130 mg and 144 mg and 133 mg
[3]; Day 8
  Tumor weight, Mean: 146.0 mg
  Tumor weight, Median: 40.4 mg
  Tumor weight, individual mice: 118 mg and 144 mg and 183 mg and 125 mg and 222 mg and 126 mg and 155 mg and 157 mg and 148 mg
[3]; Day 11
  Tumor weight, Mean: 187.6 mg
  Tumor weight, Median: 162.1 mg
  Tumor weight, individual mice: 288 mg and 142 mg and 175 mg and 243 mg and 146 mg and 252 mg and 137 mg and 140 mg and 203 mg
[3]; Day 15
  Tumor weight, Mean: 263.0 mg
  Tumor weight, Median: 250.0 mg
  Tumor weight, individual mice: 340 mg and 224 mg and 263 mg and 348 mg and 237 mg and 321 mg and 208 mg and 218 mg and 264 mg
[3]; Day 18
  Tumor weight, Mean: 338.5 mg
  Tumor weight, Median: 304.7 mg
  Tumor weight, individual mice: 489 mg and 291 mg and 288 mg and 419 mg and 256 mg and 415 mg and 318 mg and 278 mg and 352 mg
[3]; Day 22
  Tumor weight, Mean: 453.8 mg
  Tumor weight, Median: 425.4 mg
  Tumor weight, individual mice: 622 mg and 360 mg and 400 mg and 556 mg and 402 mg and 551 mg and 449 mg and 326 mg and 515 mg
[3]; Day 26
  Tumor weight, Mean: 616.2 mg
  Tumor weight, Median: 551.3 mg
  Tumor weight, individual mice: 894 mg and 478 mg and 529 mg and 770 mg and 573 mg and 724 mg and 524 mg and 394 mg and 766 mg
[3]; Day 26 vs Day 1, compared to vehicle control, BxPC-3 xenograft, ODSH 24 mg/kg BID, oxaliplatin 10 mg/kg, gemcitabine 80 mg/kg (Table 1)
  TGI (mean tumor growth inhibition), Day 26: 11.5%
[3]; Day 30
  Tumor weight, Mean: 882.3 mg
  Tumor weight, Median: 856.4 mg
  Tumor weight, individual mice: 1,083 mg and 756 mg and 893 mg and 1,201 mg and 820 mg and 945 mg and 764 mg and 555 mg and 1,109 mg
[3]; Day 33
  Tumor weight, Mean: 1,038.6 mg
  Tumor weight, Median: 979.8 mg
  Tumor weight, individual mice: 1,218 mg and 999 mg and 961 mg (2×) and 1,309 mg and 1,087 mg and 871 mg and 733 mg and 1,340 mg
[3]; Day 36
  Tumor weight, Median: 1,151.5 mg
  Tumor weight, individual mice: 1,450 mg and 1,153 mg and 1,150 mg (2×) and 1,654 mg and 1,376 mg and 1,037 mg and 836 mg and 1,823 mg
[3]; Day 36 vs Day 1, compared to vehicle control, BxPC-3 xenograft, ODSH 24 mg/kg BID, oxaliplatin 10 mg/kg, gemcitabine 80 mg/kg, nab-paclitaxel 15 mg/kg (Table 1)
  TGI (mean tumor growth inhibition), Day 36: 18.2%
[3]; Table 14, treatment administered until Day 26
  Day 26 Tumor Weight: 616.2 ± 50.9 mg
[3]; Table 15, treatment administered until Day 35
  Day 26 Tumor Weight: 1270.1 ± 95.5 mg
